The structures appear in SMILES notation.

In the first experiment the test system is adjuvant-induced arthritis. Kind of experiment: Established adjuvant-induced arthritis in rats (paw volume, uninjected left hind paw). It is filed as in vivo, Male Charles River Lewis rats. To be noted: Rattus norvegicus, po, read-out: Adjuvant Arthritis ED50 (effective dose for 50% decrease from control paw volume). From the text: To detect and compare the antiinflammatory activities of compounds in this series and standard drugs, the adjuvant arthritis test was used. A good correlation exists with results in this assay and human efficacy. (Federation Proceedings, 32, 2, 1973 "Models Used for the Study and Therapy of Rheumatoid Arthritis"--Symposium of the American Society for Pharmacology and Experimental Therapeutics).
ESTABLISHED ADJUVANT-INDUCED ARTHRITIS IN RATS
Male Charles River Lewis rats (130-150 grams) are injected subcutaneously in the plantar area of the right hind paw with 0.1 ml of adjuvant (Difco heat-killed, lyophilized Mycobacterium butyricum suspended in mineral oil 5 mg/ml). 20 Non-arthritic controls are injected with mineral oil. The animals are held for 2 weeks to allow development of arthritis. Paw volumes (uninjected, left hind paw) are measured and the adjuvant injected rats are culled and distributed to treatment groups of 10 of equal disease severity. Non-arthritic controls are distributed to 2 groups of 10. The rats are given oral doses of compound or PVA-Acacia (Polyvinyl Alcohol 1%, Gum acacia, U.S.P. 5%, Methylparaben 0.5%) or 0.25% methocel (10 ml/kg) by gavage on that day and on the 6 following days. One day after the last dose, the paw volumes (uninjected, left hind paw) are measured using a Ugo Basile Volume Differential Meter Model 7101. Inhibiting effects are calculated by the following formula: [formula]
Dose-response regression lines of the percent decrease are plotted on semi-log paper by visual fit and the effective dose for 50% decrease from control paw volume (ED50) is determined by inspection.
Compounds from this series were also compared to indomethacin, phenylbutazone, ibuprofen, and aspirin.
Regarding `COc1ccc2c(c1)c(CC(=O)O)c(C)n2C(=O)c1ccc(Cl)cc1` [Indomethacin, reference compound], the 50% effective dose (ED50) (usually the midpoint of the dose-response relation) came out at 0.3 mg/kg. On the same count and under the same terms, in the case of `CC(=O)Oc1ccccc1C(=O)O` [Aspirin, reference compound] it was 305 mg/kg.

The same experiment, now with this note: rat, oral gavage daily, 7 days; paw volume one day after last dose; read-out: Adjuvant Arthritis ED50 (effective dose for 50% decrease from control paw volume).
As for `CS(=O)(=O)c1ccc(-c2[nH]c(Br)cc2-c2ccc(F)cc2)cc1` [Example 2, 2-Bromo-4-(4-fluorophenyl)-5-(4-methylsulfonylphenyl)-1H-pyrrole], the ED50 is 1.1 mg/kg. For the compound `CS(=O)(=O)c1ccc(-c2[nH]c(Br)c(Br)c2-c2ccc(F)cc2)cc1` [Example 6], the median effective dose (ED50) was 0.88 mg/kg. For `Cn1c(Br)cc(-c2ccc(F)cc2)c1-c1ccc(S(C)(=O)=O)cc1` [Example 5, 1-Methyl-2-bromo-4-(4-fluorophenyl)-5-(4-methylsulfonylphenyl)pyrrole], the ED50 amounted to 1.7 mg/kg.

Turning to `CC(C)Cc1ccc(C(C)C(=O)O)cc1` (stereo not drawn) [Ibuprofen, reference compound], the ED50 came to 100 mg/kg. `CS(=O)(=O)c1ccc(-c2[nH]c(I)cc2-c2ccc(F)cc2)cc1` [Example 4, 2-Iodo-4-(4-fluorophenyl)-5-(4-methylsulfonylphenyl)-1H-pyrrole]: the ED50 came to 22 mg/kg.

As to `CCCCC1C(=O)N(c2ccccc2)N(c2ccccc2)C1=O` [Phenylbutazone, reference compound], the ED50 was found to be 10 mg/kg. On the same count and under the same terms, in the case of `CS(=O)(=O)c1ccc(-c2[nH]c(Cl)cc2-c2ccc(F)cc2)cc1` [Example 3, 2-Chloro-4-(4-fluorophenyl)-5-(4-methylsulfonylphenyl)-1H-pyrrole] it was 0.5 mg/kg; in that of `CS(=O)(=O)c1ccc(-c2[nH]c(Cl)c(Cl)c2-c2ccc(F)cc2)cc1` [Example 9], 1.5 mg/kg.

The same experiment, now with this note: rat, oral, daily dose 3 (mg/kg).
As to `CS(=O)(=O)c1ccc(-c2[nH]c(Cl)c(Br)c2-c2ccc(F)cc2)cc1` [Example 8, 2-Chloro-3-bromo-4-(4-fluorophenyl)-5-(4-methylsulfonylphenyl)-1H-pyrrole], the “% decrease from control paw volume at indicated daily dose” value amounted to 45%.

The experiment is the same for the next values; noted with them: rat, oral, daily dose 9 (mg/kg).
For the compound `CC(C)(C)OC(=O)n1c(Br)cc(-c2ccc(F)cc2)c1-c1ccc(S(C)(=O)=O)cc1` [Example 1, 1-tert-Butyloxycarbonyl-2-bromo-4-(4-fluorophenyl)-5-(4-methylsulfonylphenyl)pyrrole], the “% decrease from control paw volume at indicated daily dose” value is given as 44%.
